Test results taken from paper PMC8329300, “X-ray crystallography reveals molecular recognition mechanism for sugar binding in a melibiose transporter MelB” (Communications Biology, 2021).

Molecular target: T1, WT MelBSt (Salmonella typhimurium, UniProt P30878)
T1 construct: Cys scanning mutagenesis for the full-length MelBSt; His10 (C); made in house; host or cells: E. coli DW2
Test: biochemical
Assay type: binding
Conditions: for IC50: IC50 of galactoside displacement on bound D2G, α-NPG, 10 μM D2G
Description: Fig. 1 Functional characterizations. a [^3H] Melibiose transport time course with intact cells. […] Inset, melibiose fermentation assay. Transformants with DW2 strain were plated on MacConkey agar plates containing 30 mM melibiose as the sole carbohydrate source and pH sensor neutral red, and incubated at 37 °C for 16–18 h before imaging. Number of tests = 3, from different batch of cells or duplicate measurements from same batch of sample. b Ligand binding by Trp→dansyl galactoside (D^2G) FRET assay. Purified proteins at 1 μM concentration in 20 mM Tris-HCl, pH 7.5, 100 mM CholCl, 10% glycerol, and 0.03% UDM were subjected to steady-state fluorescence measurements as described in Methods. On the time-trace, 1.8 μL of 1 mM D^2G at 10 μM was added into 180 μL of protein solutions at 1-min point, followed by supplying 10 μL of 5 mM DDMB or 5 mM α-NPG to displace the bound D^2G. For testing Na^+ or Li^+ binding, they are added into the solution before displacement with the second sugar. The structure of DDMB or α-NPG is shown in a chair form, and the carbon positions are labeled. Glycosidic bonds are indicated by arrows. Both are α-galactosides containing a substituent at the anomeric carbon-1. The data were from duplicate measurements.
Steady-state fluorescence measurements were performed with an AMINCO-Bowman series 2 spectrometer with purified MelBSt at 1 μM in 20 mM Tris-HCl, pH 7.5, 100 mM CholCl, 10% glycerol, 0.03% UDM. Using an excitation wavelength at 290 nm, the emission intensity was recorded at 490 nm. On a time-trace, D^2G, NaCl or LiCl, then DDMB or α-NPG, were sequentially added into the protein solutions at a 1 min-interval. […] An identical volume of water was used for the control. The decrease in intensity after each addition of DDMB or α-NPG was corrected by the dilution effect and plotted as a function of the accumulated α-NPG concentrations or estimated DDMB concentrations. The 50% inhibitory concentration (IC50) was determined by fitting a hyperbolic function to the data (OriginPro 2020b). The final concentration of each detergent is estimated to be 234 μM, which is less than their CMC value for (DDMB, 295 μM).
Supplementary Figure 2. Determination of DDMB binding affinity to MelBSt. (a) Titration with DDMB or a-NPG. MelBSt in 20 mM Tris-HCl, pH 7.5, 100 mM CholCl, 10% glycerol, 0.03% UDM without (1) or with 100 mM NaCl (2) were added with D2G at 10 μM at 1-min time point as indicated by triangle symbols on the Trp®dansyl FRET time trace. Starting at the 2-min of time point, DDMB or a-NPG solution was supplemented consecutively at a 1-min interval into MelBSt solution till no change in fluorescence intensity reached as indicated in star symbols. DDM and UDM were used as negative controls. 1% DDM or UDM was titrated into the mixture, The […]
At 2-min time point, additions of galactosides were colored in pink, a-NPG in yellow, UDM in blue, DDM in light blue, water in gray traces, respectively. (b) IC50 determination. The intensity decrease at each titration were corrected by the dilution effect, and plotted as a function of the accumulated DDMB or α-NPG concentration. The 50% inhibitory concentration (IC50) was determined by fitting the data to a hyperbolic function (OriginPro 2020b). Results are presented in […]
(1 picture or pasted object on this page, not shown here)

T1 sequence (P30878 whole entry): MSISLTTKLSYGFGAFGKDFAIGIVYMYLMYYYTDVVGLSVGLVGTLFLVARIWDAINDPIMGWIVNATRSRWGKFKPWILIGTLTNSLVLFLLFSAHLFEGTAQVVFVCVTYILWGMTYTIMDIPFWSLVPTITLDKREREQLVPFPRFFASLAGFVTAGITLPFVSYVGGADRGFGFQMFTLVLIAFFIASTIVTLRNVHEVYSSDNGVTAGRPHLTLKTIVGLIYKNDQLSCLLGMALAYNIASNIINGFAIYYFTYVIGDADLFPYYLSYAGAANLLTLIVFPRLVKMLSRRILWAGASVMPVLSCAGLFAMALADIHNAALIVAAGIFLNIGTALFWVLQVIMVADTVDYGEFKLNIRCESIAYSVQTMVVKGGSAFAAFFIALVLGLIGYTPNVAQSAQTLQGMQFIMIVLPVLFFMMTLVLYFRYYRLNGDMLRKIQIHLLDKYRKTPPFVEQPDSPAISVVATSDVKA

Compound: O=[N+]([O-])c1ccc(OC2OC(CO)C(O)C(O)C2O)cc1 [α-NPG, 4-nitrophenyl-α-D-galactopyranoside]
- IC50 (Apo): 58.2 ± 11.5 µM
- IC50 (Na+ (100 mM)): 23 ± 2.24 µM
- effect on Trp→D2G FRET of D2G-bound protein (displacement) (added to D2G-bound WT MelBSt): large decrease in fluorescent intensity
